Where “and” joins values, the source holds several entries; their conditions need not be identical. Identical values can stand only once.
Assays:
[1] = Trial of FIG. 1 device: blood levels versus ultrasound-extracted transudate levels
Description: The device of shown in FIG. 1 has been trialed with four individuals. The device was assembled as set out above and was linked to a testosterone and ethanol detectors comprising a HPLC system and Electrochemical detector and a mass spectroscopy system. […] In turn, each subject placed their forearm on the device. The ultrasound generator was set to produce continuous pulsing, collimating ultrasonic energy at 1 MHz and 0.5 W/cm^2. The surface of delivery at the test site was approximately 5 cm^2. Collections were made from the skin surface of the forearm over a period of one minute. Blood samples were drawn simultaneously and analysed for comparison to the ultrasound samples.

[2] = Concentrations in transdermal exudate collected by different formats from sheep, versus serum
Experimental: (§1) Sodium lauryl sulfate (40%) and either a commercial ultrasound conductive gel (Aquasonic, Parker Lab., NJ 07004, USA) or a 10% ethanol gel (the two gels were alternated in use) are employed. These gels are designated SLS-UG and SLS-EG respectively herein. Collected SLS-UG and SLS-EG are assayed as for blood. Saliva was divided into two samples. The first sample is stored at −20° C. and assayed as for blood. The second sample is assayed at the time of experimentation using the apparatus and immunosensors described above.
Ten of these animals were used to develop the transdermal exudate collection technique. These 10 animals were penned as above, and a catheter inserted into the jugular vein using known techniques in the art. A mixture of sodium lauryl sulfate and either SLS-UG or SLS-EG was positioned onto the shaved area on the back of each animal. […] At the end of the hour, the remaining mix on the back was collected. The entire procedure was repeated three times. This mix was subject to assay (see below) for hormones and glucose content.
On the following day, one of the two gel mixes were rubbed on and, after 10 min, ultrasound (20 kHz, 10 W/cm^2, pulsed 5 s on/5 s off using an ITO Physiotherapy and rehabilitation unit, Tokyo 176-8605, Japan) applied for 1 min directly onto the mix. Ten minutes later, the mix was again collected and measured. This was then repeated with 2 min of the ultrasound application, and on a following day, the entire procedure repeated using the alternative gel mix on the shaved patch on the animal. Times greater than 2 min were not attempted due to potential risk of skin damage. Blood samples were collected at the time of ultrasound application and again at the time when the gel mix was also collected. The entire ultrasound procedure was then repeated on subsequent days with the addition of an application of a 9V electric field either side of the ultrasound head (in contact with skin).
On a separate day, in a further repeat of the above procedure; the collecting head (50) was positioned onto the ultrasound device. The ultrasound device was modified to ensure good coupling for use with the collecting head and delivery of needed parameters to the skin. The output of the device was reset to achieve the same energy and pulse delivery to the skin's surface as when the collecting head was not present, and the ultrasound device had been placed directly in contact with the gels (as described above). Three fluid flow rates into the collection chamber of the head were compared: 150, 300 and 600 μl/min. The effluent fluid was then assayed. On a final day, this was then repeated with the immunosensors positioned in the exit line from the chamber, with immunosensor measurement of the hormones made as has been described above.

[3] = Flow rate effect on analyte extraction (electrosonophoresis exudate versus serum); assay type: in vivo; conditions: for Sonified off membrane*: membrane sonicated in water bath
Experimental: Using the methods above for transudate and serum extraction, an experiment was conducted to determine the effect of flow rates through the head on testosterone recovery. Table 5 sets out the results of the experiment.
In a series of experiments (15 measures per flow rate) flow rates were compared for collection of testosterone in exudate from electrosonophoresis compared to that concurrently measured in serum of the subjects.

[4] = Serum, transdermal and saliva samples from sheep before, during and after exercise; conditions: for Saliva: 20-min saliva lag; for Exudate: transdermal
Experimental: as §1
(§2) Student t tests, ANOVA or Wilcoxon test for paired samples are made as appropriate. Statistical significance is taken at P≦0.05 level. For analysis across the exercise stress, data is grouped into pre, during and post exercise values as actual sample times relative to the exercise for transdermal and blood obtained values. For pre, during and post exercise grouping of saliva samples, a 20-min lag was allowed relative to blood and transdermal values in sheep and a 30-min lag in human subjects.
In the remaining 10 sheep, experimentation took place on three separate days, each 3 days apart. On days of experimentation, animals were penned as above and the jugular vein of the animal was catheterised. Animals were left to rest for 50 min and then a single ultrasound application applied for 1 min as above. […] A series of electrosonophoresis collections were made concurrently with blood collection from the jugular vein, every 5 min for a further 1 h. Saliva samples were collected on every second blood sample (i.e. every 10 min). At completion of this time, a human shepherd, intermittently for 30 min, then ran the animals around a paddock. During this 30 min, each animal was briefly restrained manually and sampled on all three parameters every 10 min (i.e. three samples repeated three times). At the end of this period, animals were repenned and rested for 10 min, and a further saliva collection was made. Following this saliva collection for a further 1-h period, collection as above, prior to exercise, was repeated. In this manner for each animal, in each session, 27 blood and transdermal samples and 16 saliva samples were collected.

[5] = Serum, transdermal and saliva samples from human subjects before, during and after exercise; conditions: for Saliva: 30-min saliva lag
Experimental: as §1, §2
Ten human volunteers (males aged 19-23, body weights 85-103 kg) were seated at 09:30 h. During the experiment, they were held at a room temperature of 20-22° C. An initial 1 min burst of ultrasound, as for the sheep (above), was made on the volar surface of the forearm, following application of SLS-EG mix. Ten minutes later, transdermal (electrosonophoresis) collection began from this site on this forearm, simultaneous to a venepuncture blood collection being made from the other. A saliva collection was then made, followed by a second, third and fourth saliva collection 20, 30 and 40 min after the blood sample. These measurements were repeated three times over 3 h (i.e. a total of three blood and transdermal samples and 12 saliva samples). In between each sampling series, subjects were allowed to walk around, eat lightly and drink water. Following this collection, the five volunteers exercised at moderate intensities, for 40 min (heart rates maintained in the range of 130-160 bpm) on a rowing machine, stopping briefly at 10, 20 and 30 min to give blood, transdermal and saliva samples. The subjects gave another set of samples at 40 min upon completion of rowing, then warmed down lightly with stretching exercises for a further 10 min and gave a further saliva sample at the end of this time. Two more saliva samples were collected at 60 and 70 min after exercise started. At the end of this time, sampling was repeated as above, prior to exercise, for a further 3 h. The entire procedure was repeated twice a week for 3 weeks (a total of six times). The distance rowed (m) represented the total work rate during the exercise.

[6] = Patients recovering in intensive care: blood versus ultrasound (US) levels; assay type: in vivo, human; conditions: one value per sample
[7] = Salivary cortisol during familiarization period; assay type: in vivo; conditions: sheep
Experimental: Twenty sheep (Romney cross ewes, 36-44 kg live weights) were farmed together as a flock for 14 days prior to experimentation. On each of these days, they were rounded up, penned, a patch on their backs (approximately 5 cm in diameter) shaved and SLS-UG or SLS-EG applied.
Two minutes later the electrosonophoresis device was placed briefly on this patch (not turned on). At the end of 1 h of penning saliva was collected using a plastic suction bulb positioned manually into the mouth of the sheep. In this manner the sheep were familiarized to the experimental procedure.

[8] = sheep, SLS + 10% E + US 1 min + 9 V
[9] = sheep, SLS + 10% E + US 1 min + 9 V + Collection Head

Q: For `C[C@]12CC[C@H]3[C@@H](CCC4=CC(=O)CC[C@@]43C)[C@@H]1CC[C@@H]2O` [Testosterone, testosterone], which “Blood level 1#” value ([1]; day 1, 30 min following 1 hour training (aerobic) and oral 10% ethanol, one value per subject (1-4)) is on record?
A: The value was 3 ng/mL and 7 ng/mL and 9 ng/mL and 4 ng/mL.

Q: And the “Ultrasound level 1#” value ([1]; day 1, 30 min following 1 hour training and oral 10% ethanol, forearm, 1 MHz, 0.5 W/cm^2, 1 min, one value per subject)?
A: The value was 2 ng/ml (2×) and 4 ng/ml and 7 ng/ml.

Q: What about the “Ultrasound level 2*” value ([1]; repeat on day 3, forearm, 1 MHz, 0.5 W/cm^2, 1 min, one value per subject) of the same compound?
A: Its value is 4 ng/ml (2×) and 6 ng/ml and 3 ng/ml.

Q: What about the “Blood level 2*” value ([1]; repeat on day 3, one value per subject) of the same compound?
A: Its value is 5 ng/mL and 10 ng/mL and 8 ng/mL and 6 ng/mL.

Q: And the Serum ([2]; sheep, SLS + 10% E)?
A: Its Serum is 0.9 ± 0.4 ng/mL.

Q: And the Exudate ([2]; sheep, SLS + 10% E + US 1 min)?
A: Its Exudate is 0.02 ± 0.005 ng/mL.

Q: And the “Relative recovery (exudate vs serum)” value ([2]; sheep, SLS + 10% E + US 1 min)?
A: Its value is “(2%)”.

Q: And the Serum ([2]; sheep, SLS + 10% E + US 1 min)?
A: The Serum was 0.9 ± 0.3 ng/mL.

Q: What about the Exudate [2, 8] of the same compound?
A: Its Exudate is 0.05 ± 0.02 ng/mL.

Q: What about the “Relative recovery (exudate vs serum)” value [2, 8] of the same compound?
A: The value was “(7%)”.

Q: What about the Serum [2, 8] of the same compound?
A: The Serum was 0.7 ± 0.6 ng/mL.

Q: And the Exudate [2, 9]?
A: The Exudate was 0.11 ± 0.06 ng/mL.

Q: What about the “Relative recovery (exudate vs serum)” value [2, 9] of the same compound?
A: The value was “(14%)”.

Q: And the Serum [2, 9]?
A: The Serum was 0.8 ± 0.6 ng/mL.

Q: And the Serum ([2]; sheep, SLS + UG)?
A: The Serum was 1.1 ± 0.6 ng/mL.

Q: And the “Recovery as % of serum levels” value ([2]; sheep, gel mix with addition of ultrasound application)?
A: Its value is 2%.

Q: What about the Collected in exudate ([3]; flow rate 50 μl/min) of the same compound?
A: Its Collected in exudate is 0.05 to 0.09 ng/mL.

Q: And the “Serum level at same time” value ([3]; flow rate 50 μl/min)?
A: Its value is 1.9 to 2.5 ng/mL.

Q: What about the “Sonified off membrane*” value ([3]; flow rate 50 μl/min) of the same compound?
A: Its value is 0.1 to 0.2 ng/mL.

Q: And the Collected in exudate ([3]; flow rate 100 μl/min)?
A: Its Collected in exudate is 0.15 to 0.20 ng/mL.

Q: And the “Serum level at same time” value ([3]; flow rate 100 μl/min)?
A: The value was 2.0 to 2.4 ng/mL.

Q: And the “Sonified off membrane*” value ([3]; flow rate 100 μl/min)?
A: Its value is 0.05 to 0.07 ng/mL.

Q: And the Collected in exudate ([3]; flow rate 150 μl/min)?
A: Its Collected in exudate is 0.2 to 0.3 ng/mL.

Q: And the “Serum level at same time” value ([3]; flow rate 150 μl/min)?
A: Its value is 1.9 to 2.6 ng/mL.

Q: And the “Sonified off membrane*” value ([3]; flow rate 150 μl/min)?
A: Its value is 0.01 to 0.02 ng/mL.

Q: And the Collected in exudate ([3]; flow rate 200 μl/min)?
A: Its Collected in exudate is 0.21 to 0.30 ng/mL.

Q: What about the “Serum level at same time” value ([3]; flow rate 200 μl/min) of the same compound?
A: The value was 2.0 to 3.01 ng/mL.

Q: And the “Sonified off membrane*” value ([3]; flow rate 200 μl/min)?
A: Its value is 0.01 to 0.02 ng/mL.

Q: And the Collected in exudate ([3]; flow rate 300 μl/min)?
A: Its Collected in exudate is 0.12 to 0.17 ng/mL.

Q: And the “Serum level at same time” value ([3]; flow rate 300 μl/min)?
A: Its value is 1.9 to 2.8 ng/mL.

Q: What about the “Sonified off membrane*” value ([3]; flow rate 300 μl/min) of the same compound?
A: The value was 0.08 to 0.12 ng/mL.

Q: What does the source list for `C[C@]12CCC(=O)C=C1CC[C@@H]1[C@@H]2[C@@H](O)C[C@@]2(C)[C@H]1CC[C@]2(O)C(=O)CO` [Cortisol, cortisol]?
A: Recovery as % of serum levels ([2]; in vivo): 5%; Serum ([4]; 10 min Exercise): 19.6 ± 5.1 ng/L; Saliva ([4]; 10 min Exercise): 1.51 ± 0.97 ng/L; Exudate ([4]; 10 min Exercise): 2.91 ± 0.83 ng/L; Serum ([4]; 20 min Exercise): 27.8 ± 4.6 ng/L; Saliva ([4]; 20 min Exercise): 2.35 ± 2.19 ng/L; Exudate ([4]; 20 min Exercise): 3.92 ± 1.01 ng/L; Serum ([4]; 30 min Exercise): 39.3 ± 7.4 ng/L; Saliva ([4]; 30 min Exercise): 2.44 ± 1.76 ng/L; Serum ([4]; Postexercise): 18.3 ± 4.9 ng/L; Saliva ([4]; Postexercise): 1.34 ± 1.81 ng/L; Exudate ([4]; Postexercise): 2.71 ± 0.55 ng/L; Serum ([4]; Preexercise): 11.9 ± 4.7 ng/L; Saliva ([4]; Preexercise): 1.07 ± 1.03 ng/L; Exudate ([4]; Preexercise): 1.71 ± 0.85 ng/L; Serum ([5]; 0 min Exercise): 29.5 ± 9.2 ng/L; Saliva ([5]; 0 min Exercise): 2.79 ± 1.13 ng/L; Serum ([5]; 10 min Exercise): 7.08 ± 11.5 ng/L; Saliva ([5]; 10 min Exercise): 8.01 ± 2.86 ng/L; Serum ([5]; 20 min Exercise): 91.3 ± 19.7 ng/L; Saliva ([5]; 20 min Exercise): 8.75 ± 4.31 ng/L; Serum ([5]; 30 min Exercise): 115.7 ± 15.8 ng/L; Saliva ([5]; 30 min Exercise): 10.04 ± 3.11 ng/L; Serum ([5]; 40 min Exercise): 109.4 ± 13.1 ng/L; Saliva ([5]; 40 min Exercise): 9.19 ± 3.76 ng/L; Serum ([5]; Postexercise): 49.6 ± 11.3 ng/L; Saliva ([5]; Postexercise): 4.02 ± 1.95 ng/L; Serum ([5]; Preexercise): 22.7 ± 8.1 ng/L; Saliva ([5]; Preexercise): 2.25 ± 1.04 ng/L; Cortisol US [6]: 32.1 ng/mL and 37.4 ng/mL and 30.5 ng/mL and 39.7 ng/mL and 29.2 ng/mL and 36.4 ng/mL and 31.3 ng/mL and 45.9 ng/mL; Salivary value ([7]; Day 14): 1.1 ± 0.9 ng/mL; Salivary value ([7]; first day): 6.4 ± 1.2 ng/mL

Source: patent US20040162467A1, “Non-invasive transudate extraction” (priority 2001, published 2004)
